Laboratory results from PubChem BioAssay (NCI).
Where “and” joins values, the source holds several entries; their conditions need not be identical. Identical values can stand only once.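 48-hour exposure; five concentrations; linearly interpolated endpoints. Abbreviation: GI50, concentration required for 50% inhibition of growth. TGI: total growth inhibition.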 Where a SMILES comes first, the peptide text is derived from it. [ ]: non-standard residue; d: D form. The star is where a group is joined. ξ: configuration not given here. NMeY = CN[C@@H](Cc1ccc(O)cc1)C(=O)O; Cbz = O=C(OCc1ccccc1)*; ξA = CC(N)C(=O)O

How the values were obtained:
Assay in all cases: growth of human tumour cells (NCI), 48 h
[1] = system: A549 NSCLC
[2] = system: COLO 205 colon
[3] = system: HOP-62 NSCLC
[4] = system: MALME-3M melanoma
[5] = system: NCI-H460 lung
[6] = system: OVCAR-3 ovarian
[7] = system: OVCAR-5 ovarian
[8] = system: SF-268 CNS
[9] = system: SF-295 CNS
[10] = system: SF-539 CNS

SMILES | TGI [1] | TGI [2] | TGI [3] | TGI [4] | TGI [5] | TGI [6] | TGI [7] | TGI [8] | TGI [9] | TGI [10] | GI50 [2] | GI50 [3] | GI50 [4] | GI50 [5] | GI50 [6] | GI50 [7] | GI50 [9] | GI50 [8]
O=C(C[C@@H]1NCCC[C@H]1O)Cn1cnc2cc(Br)c(Cl)cc2c1=O | 0.143 µM | 0.0391 µM | 1.01 µM | 0.144 µM | > 100 µM | 0.9 µM | 0.0883 µM | 0.61 µM | 0.337 µM | 0.347 µM |  |  |  |  |  |  |  | 
COc1ccc(C[C@@H](C(=O)NCC(N)=O)N(C)C(=O)[C@@H]2CCCN2C(=O)[C@H](CC(C)C)NC(=O)C(C)NC(=O)OCc2ccccc2)cc1 (stereo partly specified) (Cbz-[ξA]LP[NMeY](Me)G-NH2) | > 100 µM | > 100 µM | > 100 µM | > 100 µM | > 100 µM | > 100 µM | > 100 µM | > 100 µM | > 100 µM | > 100 µM |  |  |  |  |  |  |  | 
O=C1CCSSCCC(=O)Nc2ccccc2N1 | > 100 µM | > 100 µM | > 100 µM | > 100 µM | > 100 µM | > 100 µM | > 100 µM | > 100 µM | > 100 µM | > 100 µM |  |  |  |  |  |  |  | 
COc1ccc(/C=N/Nc2[nH]c(=S)nc3[nH]ncc23)cc1 | > 100 µM | 47.9 µM | 77.9 µM | 99.4 µM | > 100 µM | > 100 µM | > 100 µM | > 100 µM | > 100 µM | > 100 µM |  |  |  |  |  |  |  | 
O=C1C/C(=C\O)C(=O)c2ccccc2N1 | > 100 µM | > 100 µM | > 100 µM | > 100 µM | > 100 µM | > 100 µM | > 100 µM | > 100 µM | > 100 µM | > 100 µM |  |  |  |  |  |  |  | 
Oc1ccc2ccccc2c1-c1nnc(CCCCCCCCc2nnc(-c3c(O)ccc4ccccc34)o2)o1 | 25 µM and 32.9 µM | 15 µM and > 44.9 µM | > 25 µM and 12.4 µM | 8.33 µM and 58.2 µM | 25 µM and > 47.2 µM |  | 25 µM and > 100 µM | > 100 µM | 25 µM and > 93.6 µM | 16.4 µM | 5.99 µM | > 25 µM | 8.98 µM | 0.715 µM | 0.135 µM | 19.9 µM | 2.83 µM | 
CC(=O)N(C(C)=O)n1c(Cc2ccc(Cl)cc2)nn(C(C)=O)c1=O | > 100 µM | > 100 µM | > 100 µM | > 100 µM | > 100 µM | > 100 µM | > 100 µM | > 100 µM | > 100 µM | > 100 µM |  |  |  |  |  |  |  | 
CCCCCCCCCCCCCCCCP(=O)(O)OP(=O)(O)OCC1OC(n2ccc(N)nc2=O)C(O)C1O (stereo unspecified) | > 100 µM | > 100 µM | 97.3 µM and 44.6 µM | > 100 µM and 50.3 µM | > 100 µM | > 100 µM | 65.3 µM and > 64.4 µM | > 100 µM | > 100 µM and 56.5 µM | 36.3 µM and 88.6 µM | 54.7 µM and 19 µM | 31.5 µM and 4.41 µM | > 100 µM and 14 µM |  |  |  | 43 µM and 20.5 µM | 83.3 µM and 41.4 µM
CC(=O)N[C@@H](Cc1ccc(O)cn1)C(=O)NCc1ccc2c(c1)OCO2 | > 100 µM | > 100 µM | > 100 µM | > 100 µM | > 100 µM | > 100 µM | > 100 µM | > 100 µM | > 100 µM | > 100 µM |  |  |  |  |  |  |  | 
Brc1ccc2c(c1)C1(c3cc(Br)ccc3-2)c2cc(Br)ccc2-c2ccc(Br)cc21 | > 100 µM | > 100 µM | > 100 µM | > 100 µM | > 100 µM | > 100 µM | > 100 µM | > 100 µM | > 100 µM | > 100 µM |  |  |  |  |  |  |  | 
[N-]=[N+]=NC1(c2ccccc2)C(=O)Nc2ccccc2C1=O (stereo unspecified) | > 100 µM | > 100 µM | > 100 µM | > 100 µM | > 100 µM | > 100 µM | > 100 µM | > 100 µM | > 100 µM | > 100 µM |  |  |  |  |  |  |  | 
O=C1c2cc3c(cc2CC12Cc1cc4c(cc1C2)CCC4)CCC3 | > 100 µM | > 100 µM | > 100 µM | > 100 µM | > 100 µM | > 100 µM | > 100 µM | > 100 µM | > 100 µM | > 100 µM |  |  |  |  |  |  |  | 
c1ccc2c(c1)CC1c3[nH]c4ccccc4c3CCN21 (stereo unspecified) | > 10 µM | > 10 µM | > 10 µM | > 10 µM | > 10 µM | > 10 µM | > 10 µM | > 10 µM | > 10 µM | > 10 µM |  |  |  |  |  |  |  | 
COc1ccc(C2CC(c3c(C)nn(-c4ccccc4)c3-c3ccc(C)cc3O)=NN2c2ccccc2)cc1 (stereo unspecified) | > 100 µM | > 100 µM | > 100 µM | > 100 µM | > 41.7 µM | > 100 µM | > 100 µM | > 100 µM | > 100 µM | > 100 µM |  |  |  |  |  |  |  | 
CCOC(=O)c1c2c(n(C)c1-c1ccccc1)C(=O)C(C)=CC2=O | 32.9 µM | 4.5 µM | 33.6 µM | 22.8 µM | 47.8 µM | 8.17 µM | 19.6 µM | 23.1 µM | 36.8 µM | 14.6 µM |  |  |  |  |  |  |  | 
CC1CN=C(c2cccc(OCc3ccc(COc4cccc(C5=NCC(C)N5)c4)cc3)c2)N1 (stereo unspecified) | > 100 µM | 39 µM | > 100 µM | > 100 µM | 78.5 µM | > 100 µM | > 100 µM | > 100 µM | > 100 µM | 98.7 µM |  |  |  |  |  |  |  | 
COC(=O)Cc1c(C2=Nc3ccccc3C2(O)CC(=O)OC)[nH]c2ccccc12 (stereo unspecified) | > 100 µM | 52.3 µM | > 100 µM | > 100 µM | > 100 µM | > 100 µM | > 100 µM | > 100 µM | > 100 µM | 85.5 µM |  |  |  |  |  |  |  | 
COc1cc(S(=O)(=O)Nc2nc(-c3ccc(N4C(=O)/C(=C/c5ccccc5)N=C4c4ccccc4)cc3)cs2)ccc1Cl | > 100 µM | > 100 µM | > 100 µM | 83.6 µM | > 100 µM | > 100 µM | > 100 µM | > 100 µM | > 100 µM | > 100 µM |  |  |  |  |  |  |  | 
CCOC(=O)C1C/C(C)=C(/C)SCCCS1 (stereo unspecified) | > 100 µM | > 100 µM | > 100 µM | > 100 µM | > 100 µM | > 100 µM | > 100 µM | > 100 µM | > 100 µM | > 100 µM |  |  |  |  |  |  |  | 
CC1=NN(c2ccc(C)cc2)C2(C1)SCC(=O)N2c1nc2ccccc2s1 (stereo unspecified) | > 100 µM | 57.9 µM | > 100 µM | > 100 µM | 56.5 µM | 92.6 µM | > 100 µM | > 100 µM | > 100 µM | 46.8 µM |  |  |  |  |  |  |  | 
